Reference: PubChem BioAssay (NCI)
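Grown in 96-well plates, cells were treated for 48 hours with each compound at five concentrations. Insufficient inhibition: endpoint recorded as highest concentration tested. TGI: concentration producing complete growth inhibition.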

Legend:
Assay in all cases: DTP human tumour cell line panel, 48 h
[1] = system: PC-3 prostate
[2] = system: MDA-MB-231 breast
[3] = system: EKVX NSCLC
[4] = system: MCF7 breast
[5] = system: CCRF-CEM leukemia
[6] = system: HOP-92 NSCLC
[7] = system: RXF 393 renal
[8] = system: MOLT-4 leukemia
[9] = system: NCI-H460 lung
[10] = system: HS 578T breast
[11] = system: BT-549 breast
[12] = system: DU-145 prostate
[13] = system: HCC-2998 colon
[14] = system: SF-539 CNS
[15] = system: UACC-257 melanoma
[16] = system: OVCAR-5 ovarian
[17] = system: IGROV1 ovarian
[18] = system: HCT-116 colon
[19] = system: COLO 205 colon
[20] = system: HL-60(TB) leukemia
[21] = system: K-562 leukemia
[22] = system: SK-MEL-2 melanoma
[23] = system: A549 NSCLC
[24] = system: MDA-MB-435
[25] = system: OVCAR-3 ovarian
[26] = system: TK-10 renal
[27] = system: KM12 colon
[28] = system: OVCAR-8 ovarian
[29] = system: HCT-15 colon
[30] = system: UO-31 renal
[31] = system: HT29 colon
[32] = system: SN12C renal
[33] = system: NCI/ADR-RES ovarian
[34] = system: RPMI-8226 leukemia
[35] = system: M14 melanoma
[36] = system: T-47D breast
[37] = system: MDA-N
[38] = system: NCI-H226 lung
[39] = system: SF-268 CNS
[40] = system: SK-OV-3 ovarian
[41] = system: NCI-H23 lung
[42] = system: SW-620 colon
[43] = system: SF-295 CNS
[44] = system: U251 CNS
[45] = system: MALME-3M melanoma
[46] = system: UACC-62 melanoma
[47] = system: SNB-19 CNS
[48] = system: 786-0 renal
[49] = system: ACHN renal
[50] = system: SK-MEL-5 melanoma
[51] = system: OVCAR-4 ovarian
[52] = system: NCI-H522 lung
[53] = system: CAKI-1 renal
[54] = system: HOP-62 NSCLC
[55] = system: LOX IMVI melanoma
[56] = system: A498 renal
[57] = system: SK-MEL-28 melanoma
[58] = system: SNB-75 CNS

## c1ccc([Si](OCCN2CC2)(c2ccccc2)c2ccccc2)cc1
[1]
  TGI: 26.3 µM
[2]
  TGI: 28 µM
[3]
  TGI: 25.4 µM
[4]
  TGI: 31.8 µM
[5]
  TGI: 49.5 µM
[6]
  TGI: 18.4 µM
[7]
  TGI: 19.2 µM
[8]
  TGI: 36.3 µM
[9]
  TGI: 25 µM
[10]
  TGI: 24.9 µM
[11]
  TGI: 31.5 µM
[12]
  TGI: 27.5 µM
[13]
  TGI: 26.4 µM
[14]
  TGI: 26.9 µM
[15]
  TGI: 33.2 µM
[16]
  TGI: 27.7 µM
[17]
  TGI: 25.5 µM
[18]
  TGI: 27.7 µM
[19]
  TGI: 24.7 µM
[20]
  TGI: 50.8 µM
[21]
  TGI: 26.8 µM
[22]
  TGI: 18.4 µM
[23]
  TGI: 24.1 µM
[24]
  TGI: 26.7 µM
[25]
  TGI: 31.3 µM
[26]
  TGI: 29.1 µM
[27]
  TGI: 35.2 µM
[28]
  TGI: 33.1 µM
[29]
  TGI: 21.9 µM
[30]
  TGI: 28.4 µM
[31]
  TGI: 27 µM
[32]
  TGI: 27.3 µM
[33]
  TGI: 28.1 µM
[34]
  TGI: 36.9 µM
[35]
  TGI: 29.3 µM
[36]
  TGI: 39.9 µM
[37]
  TGI: 28.1 µM
[38]
  TGI: 29.8 µM
[39]
  TGI: 23 µM
[40]
  TGI: 27.5 µM
[41]
  TGI: 29 µM
[42]
  TGI: 27.8 µM
[43]
  TGI: 27.4 µM
[44]
  TGI: 27 µM
[45]
  TGI: 31.3 µM
[46]
  TGI: 27.2 µM
[47]
  TGI: 16 µM
[48]
  TGI: 27.2 µM
[49]
  TGI: 27.9 µM
[50]
  TGI: 29.2 µM
[51]
  TGI: 22.7 µM
[52]
  TGI: 25.5 µM
[53]
  TGI: 44.8 µM
[54]
  TGI: 30 µM
[55]
  TGI: 27.6 µM

## C=C1C(NC)CCC23CC24CCC2(C)C(C(C)=O)C(O)CC2(C)C4CCC13 (configuration not stated)
[1]
  TGI: > 100 µM
[2]
  TGI: > 100 µM
[3]
  TGI: > 100 µM
[4]
  TGI: > 100 µM
[5]
  TGI: > 100 µM
[6]
  TGI: > 100 µM
[8]
  TGI: > 100 µM
[9]
  TGI: > 100 µM
[56]
  TGI: > 100 µM
[10]
  TGI: > 100 µM
[11]
  TGI: > 100 µM
[12]
  TGI: > 100 µM
[13]
  TGI: > 100 µM
[57]
  TGI: > 100 µM
[14]
  TGI: > 100 µM
[15]
  TGI: > 100 µM
[16]
  TGI: > 100 µM
[17]
  TGI: > 100 µM
[18]
  TGI: > 100 µM
[19]
  TGI: > 100 µM
[20]
  TGI: > 100 µM
[21]
  TGI: > 100 µM
[22]
  TGI: > 100 µM
[23]
  TGI: > 100 µM
[24]
  TGI: > 100 µM
[25]
  TGI: > 100 µM
[26]
  TGI: > 100 µM
[27]
  TGI: > 100 µM
[28]
  TGI: > 100 µM
[29]
  TGI: > 100 µM
[58]
  TGI: > 100 µM
[30]
  TGI: > 100 µM
[31]
  TGI: > 100 µM
[32]
  TGI: > 100 µM
[33]
  TGI: > 100 µM
[34]
  TGI: > 100 µM
[35]
  TGI: > 100 µM
[36]
  TGI: > 100 µM
[37]
  TGI: > 100 µM
[38]
  TGI: > 100 µM
[39]
  TGI: > 100 µM
[40]
  TGI: > 100 µM
[41]
  TGI: > 100 µM
[42]
  TGI: > 100 µM
[43]
  TGI: 82.5 µM
[44]
  TGI: > 100 µM
[45]
  TGI: > 100 µM
[46]
  TGI: > 100 µM
[47]
  TGI: > 100 µM
[48]
  TGI: > 100 µM
[49]
  TGI: > 100 µM
[50]
  TGI: > 100 µM
[51]
  TGI: > 100 µM
[52]
  TGI: > 100 µM
[53]
  TGI: > 100 µM
[55]
  TGI: > 100 µM

## CCOP(=O)(/C=C/n1ccc(N)nc1=O)OCC
[1]
  TGI: > 100 µM
[2]
  TGI: > 100 µM
[3]
  TGI: > 100 µM
[4]
  TGI: > 100 µM
[5]
  TGI: > 100 µM
[7]
  TGI: > 100 µM
[8]
  TGI: > 100 µM
[9]
  TGI: > 100 µM
[56]
  TGI: > 100 µM
[10]
  TGI: > 100 µM
[11]
  TGI: > 100 µM
[12]
  TGI: > 100 µM
[57]
  TGI: > 100 µM
[14]
  TGI: > 100 µM
[15]
  TGI: > 100 µM
[16]
  TGI: > 100 µM
[17]
  TGI: > 100 µM
[18]
  TGI: > 100 µM
[19]
  TGI: > 100 µM
[20]
  TGI: > 100 µM
[21]
  TGI: > 100 µM
[22]
  TGI: > 100 µM
[23]
  TGI: > 100 µM
[24]
  TGI: > 100 µM
[25]
  TGI: > 100 µM
[26]
  TGI: > 100 µM
[27]
  TGI: > 100 µM
[28]
  TGI: > 100 µM
[29]
  TGI: > 100 µM
[58]
  TGI: > 100 µM
[31]
  TGI: > 100 µM
[32]
  TGI: > 100 µM
[33]
  TGI: > 100 µM
[34]
  TGI: > 100 µM
[35]
  TGI: > 100 µM
[36]
  TGI: > 100 µM
[37]
  TGI: > 100 µM
[38]
  TGI: > 100 µM
[39]
  TGI: > 100 µM
[40]
  TGI: > 100 µM
[41]
  TGI: > 100 µM
[42]
  TGI: > 100 µM
[43]
  TGI: > 100 µM
[44]
  TGI: > 100 µM
[46]
  TGI: > 100 µM
[47]
  TGI: > 100 µM
[48]
  TGI: > 100 µM
[49]
  TGI: > 100 µM
[50]
  TGI: > 100 µM
[51]
  TGI: > 100 µM
[52]
  TGI: > 100 µM
[53]
  TGI: > 100 µM
[54]
  TGI: > 100 µM
[55]
  TGI: > 100 µM

## Cc1cc(O)c(/C=N/c2nc(-c3ccc([N+](=O)[O-])cc3)cs2)c(=O)o1
[1]
  TGI: > 100 µM
[2]
  TGI: > 100 µM
[3]
  TGI: > 100 µM
[4]
  TGI: > 100 µM
[5]
  TGI: > 100 µM
[6]
  TGI: > 100 µM
[7]
  TGI: > 100 µM
[8]
  TGI: > 100 µM
[9]
  TGI: > 100 µM
[56]
  TGI: > 100 µM
[10]
  TGI: > 100 µM
[11]
  TGI: > 100 µM
[12]
  TGI: > 100 µM
[13]
  TGI: > 100 µM
[14]
  TGI: > 100 µM
[15]
  TGI: > 100 µM
[16]
  TGI: > 100 µM
[17]
  TGI: > 100 µM
[18]
  TGI: > 100 µM
[19]
  TGI: > 100 µM
[20]
  TGI: 75 µM
[21]
  TGI: > 100 µM
[22]
  TGI: > 100 µM
[23]
  TGI: > 100 µM
[24]
  TGI: > 100 µM
[26]
  TGI: > 100 µM
[27]
  TGI: > 100 µM
[28]
  TGI: > 100 µM
[29]
  TGI: > 100 µM
[58]
  TGI: > 100 µM
[30]
  TGI: > 100 µM
[31]
  TGI: > 100 µM
[32]
  TGI: > 100 µM
[33]
  TGI: > 100 µM
[34]
  TGI: > 100 µM
[35]
  TGI: > 100 µM
[36]
  TGI: > 100 µM
[37]
  TGI: > 100 µM
[38]
  TGI: > 100 µM
[39]
  TGI: > 100 µM
[40]
  TGI: > 100 µM
[41]
  TGI: > 100 µM
[42]
  TGI: > 100 µM
[43]
  TGI: > 100 µM
[44]
  TGI: > 100 µM
[46]
  TGI: > 100 µM
[47]
  TGI: > 100 µM
[48]
  TGI: > 100 µM
[49]
  TGI: > 100 µM
[50]
  TGI: > 100 µM
[51]
  TGI: > 100 µM
[52]
  TGI: > 100 µM
[53]
  TGI: > 100 µM
[54]
  TGI: > 100 µM
[55]
  TGI: > 100 µM

## C#CCOC(=O)C(N)C(C)O (configuration not stated)
[1]
  TGI: > 100 µM
[2]
  TGI: > 100 µM
[3]
  TGI: > 100 µM
[4]
  TGI: > 100 µM
[5]
  TGI: > 100 µM
[6]
  TGI: > 100 µM
[7]
  TGI: > 100 µM
[8]
  TGI: > 100 µM
[56]
  TGI: > 100 µM
[10]
  TGI: > 100 µM
[11]
  TGI: > 100 µM
[12]
  TGI: > 100 µM
[57]
  TGI: > 100 µM
[15]
  TGI: > 100 µM
[16]
  TGI: > 100 µM
[17]
  TGI: > 100 µM
[18]
  TGI: > 100 µM
[19]
  TGI: > 100 µM
[20]
  TGI: > 100 µM
[21]
  TGI: > 100 µM
[22]
  TGI: > 100 µM
[23]
  TGI: > 100 µM
[24]
  TGI: > 100 µM
[25]
  TGI: > 100 µM
[26]
  TGI: > 100 µM
[27]
  TGI: > 100 µM
[28]
  TGI: > 100 µM
[58]
  TGI: > 100 µM
[30]
  TGI: > 100 µM
[31]
  TGI: > 100 µM
[32]
  TGI: > 100 µM
[33]
  TGI: > 100 µM
[34]
  TGI: > 100 µM
[35]
  TGI: > 100 µM
[36]
  TGI: > 100 µM
[37]
  TGI: > 100 µM
[38]
  TGI: > 100 µM
[39]
  TGI: > 100 µM
[40]
  TGI: > 100 µM
[41]
  TGI: > 100 µM
[42]
  TGI: > 100 µM
[43]
  TGI: > 100 µM
[44]
  TGI: > 100 µM
[45]
  TGI: > 100 µM
[46]
  TGI: > 100 µM
[48]
  TGI: > 100 µM
[49]
  TGI: > 100 µM
[50]
  TGI: > 100 µM
[52]
  TGI: > 100 µM
[53]
  TGI: > 100 µM
[54]
  TGI: > 100 µM
[55]
  TGI: > 100 µM
